Data reported in US20260248805A1, “DIAMINOPHENOTHIAZINE FOR THE TREATMENT OF MICROVASCULAR BRAIN DISEASE” (priority 2023, published 2026).
“Also recorded” adds a separate entry of the source.

Assays:
[1] = test system: white matter hyperintensities (microvascular pathology); assay: Phase 3 clinical trials of LMTM in AD: MRI total lesion volume (TLV) of white matter hyperintensities; assay type: in vivo, human; details: for exposure dependence of rate of progression of microvascular pathology: low dose monotherapy, FIG. 6, TLV change from baseline; for estimate: difference in increase in TLV, LMTM monotherapy vs LMTM in combination with AD symptomatic treatments: FIGS. 7A and B, no unit printed at the table; for estimate: difference in increase in Total Lesion volume (TLV), LMTM monotherapy vs LMTM in combination with symptomatic treatments for AD: AD patients, MRI
Source text: The design and results from two large Phase 3, double-blind, controlled, randomised clinical trials of hydromethylthionine in probable AD were described elsewhere. Study TRx-237-015 (clintrials.gov NCT01689246), involved 890 mild/moderate AD patients and study TRx-237-005 (clintrials.gov NCT01689233), had 800 patients with mild AD meeting NIA/AA diagnostic criteria for probable AD. Eligible patients were aged less than 90 years. Patients were excluded if they had: a recent history of poorly controlled hypertension, or clinically significant cardiovascular disease (such as hospitalization for acute coronary syndrome or symptoms consistent with angina pectoris), or a modified Hachinski ischemic score of >4. Patients were also excluded if significant vascular pathology was seen on brain MRI, including large confluent white matter hyperintensities that would lead to a diagnosis other than probable AD. A detailed list of all inclusion and exclusion criteria for both trials is available in the supplementary materials. FDG-PET was performed at baseline in only a subgroup of TRx-237-015 subjects (n=198) but was required for all participants in TRx-237-005 if the appropriate imaging facilities were available at the study site. Of 1690 participants enrolled in both studies, 794 had available FDG-PET scans at baseline.
In this trial only GE, Siemens, or Philips (1.5-Tesla and 3.0-Tesla) machines were used to reduce the variability in the imaging data. The MRI sequences utilised in this protocol were based on the ADNI protocol. The recommended range of acquisition parameters for individual sequences for GE, Siemens, and Philips MRI machines were developed after technical evaluation forms from all sites. The following sequences were included: FLAIR: This sequence allows assessment of other clinically significant focal intracranial pathology and for detection and quantification of WMHs; Unenhanced T1-weighted, 3-dimensional sequence (e.g., MP RAGE or SPGR) were used for evaluation of the whole brain, ventricular and hippocampal volumes and WMH.
Brain MRI derived WMHs were quantified using the Lesion Growth Algorithm (LGA) part of the Lesion Segmentation Toolbox (LST [28]) which is an automated method for extracting WMH and has been validated in various datasets. This algorithm uses T1 and FLAIR MR images to classify voxels, with T1 images used to segment tissue classes white matter (WM), grey matter (GM), cerebrospinal fluid (CSF) and fluid attenuated inversion recovery (FLAIR) imaging used to determine areas of hyperintense signal (i.e., WMH). WMH data are provided as whole-brain total lesion volume (TLV), measured in cm^3.
Exposure dependence groups were defined in accordance with the methods described in more detail in WO2020/020751 discussed hereinbefore.

tau aggregation = tau aggregation (Homo sapiens, UniProt P10636); details: in vitro (LMTM: in vitro and in vivo); cited from earlier work
[2] = cited from earlier work
[3] = compared with the MT+ form; cited from earlier work
Alzheimer's disease = details: monotherapy vs combination with AChEIs and/or memantine; cited from earlier work
[4] = test system: PHFs from Alzheimer's disease brain tissue; details: cited from earlier work
tau pathology = details: transgenic mouse tau models; brain concentrations consistent with human oral dosing; cited from earlier work

Sequence of tau aggregation (P10636 whole entry): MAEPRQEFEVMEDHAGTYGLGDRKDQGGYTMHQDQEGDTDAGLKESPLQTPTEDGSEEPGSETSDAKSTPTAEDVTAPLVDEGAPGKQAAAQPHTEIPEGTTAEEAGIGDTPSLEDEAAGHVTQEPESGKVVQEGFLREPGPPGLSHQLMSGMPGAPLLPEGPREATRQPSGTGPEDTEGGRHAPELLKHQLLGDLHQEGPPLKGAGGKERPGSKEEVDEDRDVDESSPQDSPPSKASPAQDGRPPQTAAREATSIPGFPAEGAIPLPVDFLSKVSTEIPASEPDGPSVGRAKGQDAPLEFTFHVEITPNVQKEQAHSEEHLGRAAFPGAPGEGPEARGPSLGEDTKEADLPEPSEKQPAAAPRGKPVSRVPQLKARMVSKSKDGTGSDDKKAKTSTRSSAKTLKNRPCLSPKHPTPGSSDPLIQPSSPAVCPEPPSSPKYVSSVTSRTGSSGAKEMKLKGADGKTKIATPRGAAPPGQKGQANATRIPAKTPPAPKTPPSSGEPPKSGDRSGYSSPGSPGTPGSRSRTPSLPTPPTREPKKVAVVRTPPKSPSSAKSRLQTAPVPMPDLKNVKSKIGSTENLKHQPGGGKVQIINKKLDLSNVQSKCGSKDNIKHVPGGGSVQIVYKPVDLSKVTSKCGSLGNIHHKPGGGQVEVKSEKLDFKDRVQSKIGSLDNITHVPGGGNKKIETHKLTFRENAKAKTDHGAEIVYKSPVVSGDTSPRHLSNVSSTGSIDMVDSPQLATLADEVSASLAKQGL

Structure (SMILES)	exposure dependence of rate of progression of microvascular pathology [1]	estimate: difference in increase in TLV, LMTM monotherapy vs LMTM in combination with AD symptomatic treatments ([1]; 4 mg b.i.d. (low dose group))	estimate: difference in increase in Total Lesion volume (TLV), LMTM monotherapy vs LMTM in combination with symptomatic treatments for AD ([1]; 4 mg b.i.d. (low dose)) [mL]	estimate: difference in increase in Total Lesion volume (TLV), LMTM monotherapy vs LMTM in combination with symptomatic treatments for AD ([1]; 100 mg b.i.d. (high dose)) [mL]	estimate: difference in increase in TLV, LMTM monotherapy vs LMTM in combination with AD symptomatic treatments ([1]; 100 mg b.i.d., high dose (mean of high doses, 150-250 mg/day))	increase in Total Lesion volume, monotherapy vs combination with symptomatic treatments for AD ([1]; high dose and low dose groups, statistically significant difference)	tau aggregation inhibitor activity (tau aggregation)	pharmaceutic properties: solubility and pKa [2]	absorption [3]	treatment benefit in AD according to the trial criteria (Alzheimer's disease)	dissolution of PHFs [4]	tau pathology and behavioural deficits (tau pathology)
CN(C)c1ccc2c(c1)Sc1cc(N(C)C)ccc1N2 [LMT, N3,N3,N7,N7-tetramethyl-10H-phenothiazine-3,7-diamine]	exposure-dependent reduction in progression of microvascular pathology											
CN(C)c1ccc2c(c1)Sc1cc(N(C)C)ccc1N2.CS(=O)(=O)O.CS(=O)(=O)O [LMTM, N,N,N′,N′-tetramethyl-10H-phenothiazine-3,7-diaminium bis(hydromethanesulfonate)]	exposure-dependent difference in rate of progression of microvascular pathology	−0.3494	-0.3494	-0.3865	−0.3865	less increase in Total Lesion volume; also recorded: less increase in TLV	retains TAI activity in vitro and in vivo	superior pharmaceutic properties in terms of solubility and pKa	not subject to the absorption limitations of the MT^+ form	restricted to patients taking LMTM as monotherapy		
CN(C)c1ccc2nc3ccc(=[N+](C)C)cc-3sc2c1 [MT, Methylthioninium]							acts as a tau aggregation inhibitor in vitro				dissolves PHFs from Alzheimer's disease brain tissue	reduces tau pathology and associated behavioural deficits
